According to US6750348B1, “Chemokine receptor binding heterocyclic compounds” (AnorMED, Inc., priority 1999, dated 2004):
Read-outs that look alike come from different tables or passages of the source.

What was measured:
Format in all cases: cell-based
[1] = test system: RANTES induced Ca flux in U87.CCR5 cells; assay: Inhibition of RANTES induced Ca flux in U87.CCR5 cells (FLIPR); details: read-out: inhibited RANTES induced Ca flux; for inhibition at 20 µg/mL: U-87-CCR5, at 20 μg/mL; for inhibition at 20 µM: U-87-CCR5, at 20 μM
Description: (§1) Loading dye: Fluo-3, AM (Molecular Probes F-1241) is dissolved in anhydrous DMSO and stored frozen in aliquots. To increase the solubility of the dye in the loading medium, 10% (w/v) pluronic acid (Molecular Probes F-127) is added to the Fluo-3 stock solution immediately before use.
(§2) HBSS+20 mM Hepes buffer+0.2% BSA, pH 7.4. HBSS 10× [(w/o phenol red and sodium bicarbonate (Gibco 14 065-049)]; Hepes buffer 1M (Gibco 15 630-056), BSA (Sigma A3675). The flux buffer is vacuum-filtered and stored refrigerated for a maximum of 5 days. Before use in the experiment, the buffer is warmed at 37° C. in a waterbath.
(§3) The test compounds were diluted in flux buffer and added to 4 wells of a black microplate (4 parallel measurements per compound).
(§4) The chemokines are diluted in flux buffer to concentrations that are 4-fold higher than the desired concentrations required for stimulation of the cells (i.e. 2.5 nM for SDF-1α and 0.6 nM for RANTES). The chemokines were added to untreated 96-well Sero well compound plates (International Medical, Sterilin code 611F96). In the negative control well's (baseline monitoring), flux buffer is added instead of chemokine. As a positive control to check for dye loading efficiency, 20 μM digitonin (final concentration) was also included. The agonist plate was incubated in the FLIPR (37° C.) for 15-30 min.
(§5) The FLIPR settings (camera exposure time and laser power) are adjusted to obtain initial fluorescence values between 8,000 and 10,000 units. After monitoring a 20 second-baseline, the agonist (chemokine) (50 μL) is added by automatic pipettor with black pipette tips. Fluorescence is measured simultaneously in all wells of the microplate every 2 seconds (first 2 min) and thereafter every 6 seconds (additional 2 min). The average ca-flux measured in each set of 4 identical wells (one test compound) was calculated by the FLIPR software.
U87.CCR5 cells were seeded into the black microplates (Costar 3603) on the day before the experiment. The culture medium was removed from the cells and 100 μL of loading medium (DMEM+10% FBS+4 μM Fluo-3, AM) was added to each well and the plate was incubate at 37° C. for 45 min. The loading medium was then removed an the cells were washed twice with flux buffer using the CELL WASH microplate washer (Labsystems) followed by incubation in flux buffer for 10 min. at room temperature (the washing procedure was repeated twice). Finally, the wash buffer was removed from the microplate wells and 150 μL of the test compound, diluted in flux buffer to the desired concentration. The microplate was then incubated in the FLIPR drawer for 10 min. prior to testing. Measurements were performed as described above.
The compounds of the current invention were tested for inhibition of RANTES induced Ca flux in U87.CCR5 cells.

HIV-1 NL4.3 or IIIB = assay: Inhibition of HIV-1 (NL4.3 or IIIB) replication in MT-4 cells (MTT); details: Human immunodeficiency virus 1, IIIB
Description: Compounds were tested for their ability to inhibit HIV-1 replication in MT-4 cells or PBMC's (peripheral blood mononucleocytes) using published procedures (for example, see: Labrosse et al. J. Virol. 1998, 6381-6388; Simmons et al. J. Virol. 1998, 8453-8457; Donzella et al. Nature Medicine 1998, 72-77; Schols et al. J. Exp. Med. 1997, 1383-1388; De Clercq et al. Antiviral Res. 1997, 147-156; and Bridger et al. U.S. patent application Ser. No. 09/111,895). In addition to the above references, experimental methods for performing anti-viral assays can also be found in: Bridger et al. J. Med. Chem. 1995, 38, 366-378; Bridger et al. J. Med. Chem. 1996, 39, 109-119; Bridger et al. U.S. Pat. No. 5,698,546; Bridger et al. U.S. Pat. No. 5,583,131; Bridger et al. U.S. Pat. No. 5,817,807; De Clercq et al. Antimicrob. Agents and Chemother. 1994, 38, 668-674.
1. The HIV-1 strains NL4.3 and IIIB are T-tropic strains that exclusively use CXCR4 as the co-receptor for entry into cells. MT-4 Cells express CXCR4 but not CCR5.
Inhibition of HIV-1 NL4.3 (or IIIB) replication assays were performed as previously described (Bridger et al. J. Med. Chem. 1999, 42, 3971-3981; De Clercq et al. Proc. Natl. Acad. Sci, 1992, 89, 5286-5290; De Clercq et al. Antimicrob. Agents Chemother. 1994, 38, 668-674; Bridger et al. J. Med. Chem. 1995, 38, 366-378). Anti-HIV activity and cytotoxicity measurements were carried out in parallel. They were based on the viability of MT-4 cells that had been infected with HIV in the presence of various concentrations of the test compounds. After the MT-4 cells were allowed to proliferate for 5 days, the number of viable cells was quantified by a tetrazolium-based calorimetric 3-(4,5-dimethylthiazol-2-yl)-2,5-diphenyltetrazolium bromide (MTT) procedure in 96-well microtrays. In all of these assays, viral input (viral multiplicity of infection, MOI) was 0.01, or 100 times the 50% cell culture infective dose (CCID50). The EC50 was defined as the concentration required to protect 50% of the virus-infected cells against viral cytopathicity.

[2] = test system: SDF-1α induced Ca flux in SUP-T1 cells; assay: Inhibition of SDF-1α induced Ca flux in SUP-T1 cells (FLIPR); details: Homo sapiens, read-out: inhibited SDF-1α induced Ca flux; for inhibition at 20 µg/mL: at 20 μg/mL
Description: as §1, §2, §3, §4
SUP-T1 cells were centrifuged at room temperature (RT) and re-suspended in loading medium (RPMI-1640 containing 2% FBS and 4 μM Fluo-3, AM). The cells were incubate at room temperature for 45 min. then washed twice in flux buffer then incubated in flux buffer at room temperature for 10 min. The cells were centrifuged and re-suspended in flux buffer at a density of 3×10^6 cells per mL. […] The microplate is then gently centrifuged at room temperature. Homogeneous spreading of the cells on the bottom of the microplate wells was then confirmed with a microscope and the microplate was incubated in the FLIPR (37° C.) for 10 min. prior to testing.
as §5
The compounds of the current invention were tested for inhibition of SDF-1α induced Ca flux in SUP-T1 cells using the method described above.

[3] = MT4, read-out: EC50, inhibition of HIV-1 NL4.3 or IIIB replication

Compound	EC50 (HIV-1 NL4.3 or IIIB; [3]) [µg/mL]	inhibition at 20 µg/mL [2] [%]	further results
N[C@@H]1CCCC[C@H]1N(Cc1ccc(CNCc2ccccn2)cc1)C1CCCc2cccnc21 (relative stereo) [Example 68, N-(2-pyridinylmethyl)-N′-(trans-2-aminocyclohexyl)-N′-(5,6,7,8-tetrahydro-8-quinolinyl)-1,4-benzenedimethanamine]	< 20	–	inhibition at 20 µg/mL [1]: > 20%
c1ccc(CNCc2ccc(CNc3cccc4cccnc34)cc2)nc1 [Example 6, N-(2-pyridinylmethyl)-N′-(8-quinolinyl)-1,4-benzenedimethanamine]	< 20	–	inhibition at 20 µg/mL [1]: > 20%
c1ccc(CNCc2ccc(CN(Cc3ccc4ccccc4n3)C3CCCc4cccnc43)cc2)nc1 (stereo not shown) [Example 18, N-(2-pyridinylmethyl)-N′-(2-quinolinylmethyl)-N′-(5,6,7,8-tetrahydro-8-quinolinyl)-1,4-benzenedimethanamine]	< 20	> 20	–
c1ccc(CNCc2ccc(CN(Cc3cc[nH]n3)C3CCCc4cccnc43)cc2)nc1 (stereo not shown) [Example 25, N-(2-pyridinylmethyl)-N′-[3-pyrazolylmethyl]-N′-(5,6,7,8-tetrahydro-8-quinolinyl)-1,4-benzenedimethanamine]	–	–	inhibition at 20 µg/mL [1]: > 20%
c1ccc(CNCc2ccc(CN(Cc3nccs3)C3CCCc4cccnc43)cc2)nc1 (stereo not shown) [Example 28, N-(2-pyridinylmethyl)-N′-[2-thiazolylmethyl]-N′-(5,6,7,8-tetrahydro-8-quinolinyl)-1,4-benzenedimethanamine]	< 20	> 20	–
COc1ccc2c(c1)CC(NCc1ccc(CNCc3ccccn3)cc1)CC2 (stereo not shown) [Example 35, N-(2-pyridinylmethyl)-N′-(7-methoxy-1,2,3,4-tetrahydro-2-naphthalenyl)-1,4-benzenedimethanamine]	< 20	> 20	–
Oc1cccc2c1CC(NCc1ccc(CNCc3ccccn3)cc1)CC2 (stereo not shown) [Example 41, N-(2-pyridinylmethyl)-N′-(8-hydroxy-1,2,3,4-tetrahydro-2-naphthalenyl)-1,4-benzenedimethanamine]	< 20	> 20	–
c1ccc(CNCc2ccc(CNC3CCc4cccnc4C3)cc2)nc1 (stereo not shown) [Example 45, N-(2-pyridinylmethyl)-N′-(5,6,7,8-tetrahydro-7-quinolinyl)-1,4-benzenedimethanamine]	< 20	> 20	–
CC(C)CNCCN(Cc1ccc(CNCc2ccccn2)cc1)C1CCCc2cccnc21 (stereo not shown) [Example 48, N-(2-pyridinylmethyl)-N′-[2-(isobutylamino)ethyl]-N′-(5,6,7,8-tetrahydro-8-quinolinyl)-1,4-benzenedimethanamine]	< 20	> 20	–
N=C(N)NCCN(Cc1ccc(CNCc2ccccn2)cc1)C1CCCc2cccnc21 (stereo not shown) [Example 51, N-(2-pyridinylmethyl)-N′-(2-guanidinoethyl)-N′-(5,6,7,8-tetrahydro-8-quinolinyl)-1,4-benzenedimethanamine]	< 20	> 20	–
O=C(NCCN(Cc1ccc(CNCc2ccccn2)cc1)C1CCCc2cccnc21)Nc1ccccc1 (stereo not shown) [Example 55, N-(2-pyridinylmethyl)-N′-[2-(phenylureido)ethyl]-N′-(5,6,7,8-tetrahydro-8-quinolinyl)-1,4-benzenedimethanamine]	< 20	> 20	–
c1ccc(CNCc2ccc(CN(Cc3ccccn3)C3CCCc4cccnc43)cc2)nc1 (stereo not shown) [Example 84, N,N′-bis(2-pyridinylmethyl)-N′-(5,6,7,8-tetrahydro-8-quinolinyl)-1,4-benzenedimethanamine]	< 20	> 20	–
c1ccc(CNCc2ccc(CN(Cc3ccccn3)C3CCCCc4cccnc43)cc2)nc1 (stereo not shown) [Example 85, N,N′-bis(2-pyridinylmethyl)-N′-(6,7,8,9-tetrahydro-5H-cyclohepta[b]pyridin-9-yl)-1,4-benzenedimethanamine]	< 20	> 20	–
c1ccc(CNCc2ccc(CN(Cc3ccccn3)C3CCc4cccnc43)cc2)nc1 (stereo not shown) [Example 86, N,N′-bis(2-pyridinylmethyl)-N′-(6,7-dihydro-5H-cyclopenta[b]pyridin-7-yl)-1,4-benzenedimethanamine]	< 20	> 20	–
c1ccc(CNCc2ccc(CN(Cc3ccccn3)CC3CCc4cccnc43)cc2)nc1 (stereo not shown) [Example 89, N,N′-bis(2-pyridinylmethyl)-N′[(6,7-dihydro-5H-cyclopenta[b]pyridin-7-yl)methyl]-1,4-benzenedimethanamine]	< 20	> 20	–
c1ccc(CCN(Cc2cccc(CNCc3ccccn3)c2)Cc2ccccn2)cc1 [Example 109, N-[-(phenyl)ethyl]-N,N′-bis(2-pyridinylmethyl)-1,3-benzenedimethanamine]	–	–	inhibition at 20 µM [1]: > 20%
c1ccc(CNCc2cccc(CN(Cc3ccccn3)Cn3ccnc3)c2)nc1 [Example 118, N-[1H-imidazol-1-ylmethyl]-N,N′-bis(2-pyridinylmethyl)-1,3-benzenedimethanamine]	–	–	inhibition at 20 µM [1]: > 20%
Cc1nc[nH]c1CN(Cc1ccc(CNCc2ccccn2)cc1)Cc1ccccn1 [Example 166, N-[(4-methyl)-1H-imidazol-5-ylmethyl]-N,N′-bis(2-pyridinylmethyl)-1,4-benzenedimethanamine]	–	–	inhibition at 20 µM ([2]; at 20 μM): > 20%; EC50 (HIV-1 NL4.3 or IIIB; MT4, read-out: EC50, inhibition of HIV-1 NLA.3 or IIIB replication): < 20 µM
c1ccc(CN2CCC(N(CCc3ccccn3)Cc3cccc(CNCc4ccccn4)c3)C2)cc1 (stereo not shown) [Example 179, N-[1-(benzyl)-3-pyrrolidinyl]-N-[2-(2-pyridinyl)ethyl]-N′-(2-pyridinylmethyl)-1,3-benzenedimethanamine]	–	–	inhibition at 20 µM [1]: > 20%
